A short description of data set [1]: in vivo. To be noted: Wistar, rat, 1 mg/kg.
The nature of data set [2]: in vivo. To be noted: Wistar, rat, po, 1 mg/kg.
Data set [3] can be described thus: in vivo. Conditions: Wistar, rat, iv, 1 mg/kg.
Data set [4] is described as follows: in vitro. To be noted: human, microsomes.
Data set [5] is described as follows: in vitro. Conditions: rat, microsomes.
Another data set is described as follows: physchem. To be noted: buffer.

The structures appear in SMILES notation. In brackets after ≈: the same amount, converted by molar mass.

In the data set “in vivo [1]”, `CCN(NC(=O)C(F)(F)F)C(=O)N[C@H](C)c1ncc(-c2cc(Cl)cc(Cl)c2OCC(F)F)cc1F` returned a half-life of 2.25 h. The compound also registered a bioavailability in “in vivo [2]” greater than 44%. In “in vivo [3]”, this compound showed a clearance of 7 mL/min/kg.
Regarding `C[C@@H]1CC[C@H](C)N1C(=O)c1ccc([C@@H](C)NC(=O)C2(NC(=O)c3cc(F)cc(C(F)(F)F)c3)CC2)c(F)c1`, the amount remaining at 1 h was 9% in the data set “in vitro [4]” and 45% in the data set “in vitro [5]”. In “physchem”, the solubility was 42 µM (≈ 22.6 µg/mL).

By half-life is commonly meant the time in which the quantity being followed falls by half. The low end stands for rapid decline, the high end for slow decline. As a reminder, the bioavailability is the share of a dose that reaches the circulation, judged against a reference dose that is usually intravenous. A lower bioavailability goes with little systemic uptake. As a reminder, the clearance is the volume of plasma or blood freed of the substance per unit of time. The share remaining is what is left of the initial amount, in per cent. The low end stands for a greater loss, the high end for greater stability. For orientation: solubility means the concentration that dissolves in the medium under given conditions.

The values are drawn from ChEMBL document CHEMBL1157727, “Novel small molecule bradykinin B1 receptor antagonists. Part 1: benzamides and semicarbazides” (Bioorg Med Chem Lett, 2010).
